Laboratory results reported in patent US10245272B2, “Transmembrane penetration enhancer” (priority 2010, dated 2019).

Test: Amount of clonazepam in blood, brain and skin after transdermal application (HPLC)
Settings: rats
Protocol: In support of another embodiment of the present invention, a supporting experiment was conducted where the backs of 3 white male rats that weighed approximately 150 g. were shaved and the backs of the rats were shaved and washed with lukewarm water and approximately 25 cm^2 of the base of a transmembrane/transdermal penetration enhancer described in Example 14 was administered. The base contained 10 mg of clonazepam and after six hours from the time of the application, the rats were killed and blood, brain and skin were taken from the application area. The amount of clonazepam in the organs and tissues of the killed rats were identified by HPLC method.

[1] = base of Example 14 with 10 mg clonazepam on approx. 25 cm^2, six hours after application

Compound: O=C1CN=C(c2ccccc2Cl)c2cc([N+](=O)[O-])ccc2N1 [clonazepam]
- amount of clonazepam in 1 cm^2 of the skin at the application area [1]: 0.04 ± 0.002 mg
- amount of clonazepam in 1 cm^3 of blood [1]: 0.043 ± 0.002 mg
- amount of clonazepam in 1 g of brain [1]: 0.016 ± 0.001 mg
- amount of penetrated/permeated clonazepam through 25 cm^2 application area (base of Example 14 with 10 mg clonazepam, during 6 hours): 60 % of applied amount
